Results: publication PMC5762315, “Inhibition of polo-like kinase 4 (PLK4): a new therapeutic option for rhabdoid tumors and pediatric medulloblastoma” (Oncotarget, 2017)
Several values for one entry are separate records, joined by “and”; a condition that tells them apart may be missing. Identical values can stand only once.

Columns and labels:
Assay in all cases: LanthaScreen Eu Kinase Binding Assay, panel of 486 biochemical kinase assays
various kinases [1] = biological target: various kinases (Homo sapiens, UniProt O14936); settings: CASK
various kinases [2] = biological target: various kinases (Homo sapiens, UniProt O75716); settings: kinase STK16 (PKL12); LanthaScreen Binding
Chain of various kinases (Homo sapiens, UniProt O75716) (O75716 whole entry): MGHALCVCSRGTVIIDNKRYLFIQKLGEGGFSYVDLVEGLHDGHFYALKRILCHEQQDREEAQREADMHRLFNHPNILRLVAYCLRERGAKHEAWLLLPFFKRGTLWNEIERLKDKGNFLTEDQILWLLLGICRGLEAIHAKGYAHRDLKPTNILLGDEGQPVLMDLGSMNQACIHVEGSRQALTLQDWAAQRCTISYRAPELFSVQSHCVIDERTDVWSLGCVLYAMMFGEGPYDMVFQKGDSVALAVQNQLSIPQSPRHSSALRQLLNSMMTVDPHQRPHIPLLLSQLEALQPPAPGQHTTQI

various kinases [3] = biological target: T1, various kinases (Homo sapiens, UniProt O94768); settings: kinase STK17B (DRAK2); LanthaScreen Binding
T1 sequence (O94768 1-372): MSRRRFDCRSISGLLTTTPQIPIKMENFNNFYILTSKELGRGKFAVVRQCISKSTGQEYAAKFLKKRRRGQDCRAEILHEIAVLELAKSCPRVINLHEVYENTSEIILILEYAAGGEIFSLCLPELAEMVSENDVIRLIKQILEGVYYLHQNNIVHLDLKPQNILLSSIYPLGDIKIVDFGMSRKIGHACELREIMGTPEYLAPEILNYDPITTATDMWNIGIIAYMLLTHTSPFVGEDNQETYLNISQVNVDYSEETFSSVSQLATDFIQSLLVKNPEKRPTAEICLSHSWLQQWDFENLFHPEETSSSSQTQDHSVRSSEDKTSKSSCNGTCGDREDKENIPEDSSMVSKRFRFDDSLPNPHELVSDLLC

various kinases [4] = biological target: various kinases (Homo sapiens, UniProt P00519, H396P); settings: ABL1 H396P
various kinases [5] = biological target: various kinases (Homo sapiens, UniProt P00519, M351T); settings: ABL1 M351T
various kinases [6] = biological target: various kinases (Homo sapiens, UniProt P04049, Y340D/Y341D); settings: kinase RAF1 (cRAF) Y340D Y341D; LanthaScreen Binding
Chain of various kinases (Homo sapiens, UniProt P04049, Y340D/Y341D) (P04049 whole entry Y340D/Y341D): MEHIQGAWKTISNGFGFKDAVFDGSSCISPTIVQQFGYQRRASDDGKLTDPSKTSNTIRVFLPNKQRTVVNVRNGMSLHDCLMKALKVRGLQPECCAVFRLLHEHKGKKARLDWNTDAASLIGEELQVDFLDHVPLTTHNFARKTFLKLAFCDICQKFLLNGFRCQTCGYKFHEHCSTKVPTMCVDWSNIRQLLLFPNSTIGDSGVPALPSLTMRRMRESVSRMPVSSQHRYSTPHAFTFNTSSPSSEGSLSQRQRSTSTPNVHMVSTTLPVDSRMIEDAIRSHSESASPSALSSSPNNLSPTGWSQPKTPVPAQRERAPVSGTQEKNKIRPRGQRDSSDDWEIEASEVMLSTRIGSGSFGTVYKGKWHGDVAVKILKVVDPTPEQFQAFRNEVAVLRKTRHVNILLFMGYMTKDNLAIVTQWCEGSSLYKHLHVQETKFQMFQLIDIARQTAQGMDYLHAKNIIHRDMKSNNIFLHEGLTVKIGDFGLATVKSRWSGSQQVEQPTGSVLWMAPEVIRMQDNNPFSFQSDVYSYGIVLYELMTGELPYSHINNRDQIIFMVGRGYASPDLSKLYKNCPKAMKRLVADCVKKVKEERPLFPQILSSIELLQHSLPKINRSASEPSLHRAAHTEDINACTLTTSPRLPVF

various kinases [7] = biological target: various kinases (Homo sapiens, UniProt P10721, D816V); settings: KIT D816V
various kinases [8] = biological target: various kinases (Homo sapiens, UniProt P22612); settings: kinase PRKACG (PRKAC gamma); LanthaScreen Binding
various kinases [9] = biological target: various kinases (Homo sapiens, UniProt P36507); settings: MAP2K2 (MEK2)
various kinases [10] = biological target: various kinases (Homo sapiens, UniProt P50750)
Chain of various kinases (Homo sapiens, UniProt P50750) (P50750 whole entry): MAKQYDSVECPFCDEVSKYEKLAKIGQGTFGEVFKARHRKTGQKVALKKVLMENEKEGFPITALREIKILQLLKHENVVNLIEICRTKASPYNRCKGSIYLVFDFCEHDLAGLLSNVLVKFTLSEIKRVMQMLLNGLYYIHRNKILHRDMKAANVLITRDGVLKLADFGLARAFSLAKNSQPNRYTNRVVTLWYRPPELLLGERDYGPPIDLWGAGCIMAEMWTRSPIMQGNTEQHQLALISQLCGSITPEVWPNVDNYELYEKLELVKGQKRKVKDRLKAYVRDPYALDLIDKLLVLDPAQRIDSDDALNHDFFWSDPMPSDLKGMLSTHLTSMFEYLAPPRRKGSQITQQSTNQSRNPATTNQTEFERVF

various kinases [11] = biological target: various kinases (Homo sapiens, UniProt P52564); settings: MAP2K6 (MKK6)
various kinases [12] = biological target: various kinases (Homo sapiens, UniProt P53667); settings: LIMK1
various kinases [13] = biological target: various kinases (Homo sapiens, UniProt Q13163); settings: MAP2K5 (MEK5)
various kinases [14] = biological target: various kinases (Homo sapiens, UniProt Q13705); settings: ACVR2B
various kinases [15] = biological target: various kinases (Homo sapiens, UniProt Q15375); settings: EPHA7
various kinases [16] = biological target: various kinases (Homo sapiens, UniProt Q86UE8); settings: kinase TLK2; LanthaScreen Binding
Chain of various kinases (Homo sapiens, UniProt Q86UE8) (Q86UE8 whole entry): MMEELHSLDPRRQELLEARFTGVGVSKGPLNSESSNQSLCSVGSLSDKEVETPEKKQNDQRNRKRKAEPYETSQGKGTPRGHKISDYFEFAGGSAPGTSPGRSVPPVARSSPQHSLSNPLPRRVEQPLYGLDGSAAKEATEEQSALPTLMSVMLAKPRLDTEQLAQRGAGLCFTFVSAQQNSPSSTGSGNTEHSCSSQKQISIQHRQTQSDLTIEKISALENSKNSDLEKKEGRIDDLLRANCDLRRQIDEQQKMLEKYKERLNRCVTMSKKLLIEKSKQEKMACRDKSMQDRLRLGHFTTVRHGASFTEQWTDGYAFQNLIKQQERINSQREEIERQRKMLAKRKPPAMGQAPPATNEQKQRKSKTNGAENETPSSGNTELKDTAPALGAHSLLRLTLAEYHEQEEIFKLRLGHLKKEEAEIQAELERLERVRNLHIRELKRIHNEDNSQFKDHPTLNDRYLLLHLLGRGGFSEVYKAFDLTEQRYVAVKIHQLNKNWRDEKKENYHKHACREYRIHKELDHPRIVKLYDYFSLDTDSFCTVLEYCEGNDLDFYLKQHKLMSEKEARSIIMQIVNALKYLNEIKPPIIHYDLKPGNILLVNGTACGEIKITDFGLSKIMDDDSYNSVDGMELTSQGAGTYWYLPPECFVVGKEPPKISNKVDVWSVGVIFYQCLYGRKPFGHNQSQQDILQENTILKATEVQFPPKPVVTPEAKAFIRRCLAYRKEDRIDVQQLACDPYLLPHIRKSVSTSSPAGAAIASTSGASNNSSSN

various kinases [17] = biological target: various kinases (Homo sapiens, UniProt Q86Y07); settings: kinase VRK2; LanthaScreen Binding
various kinases [18] = biological target: various kinases (Homo sapiens, UniProt Q8WXR4); settings: MYO3B (MYO3 beta)
various kinases [19] = biological target: T2, various kinases (Homo sapiens, UniProt Q99640); settings: kinase PKMYT1; LanthaScreen Binding
T2 sequence (Q99640 1-499): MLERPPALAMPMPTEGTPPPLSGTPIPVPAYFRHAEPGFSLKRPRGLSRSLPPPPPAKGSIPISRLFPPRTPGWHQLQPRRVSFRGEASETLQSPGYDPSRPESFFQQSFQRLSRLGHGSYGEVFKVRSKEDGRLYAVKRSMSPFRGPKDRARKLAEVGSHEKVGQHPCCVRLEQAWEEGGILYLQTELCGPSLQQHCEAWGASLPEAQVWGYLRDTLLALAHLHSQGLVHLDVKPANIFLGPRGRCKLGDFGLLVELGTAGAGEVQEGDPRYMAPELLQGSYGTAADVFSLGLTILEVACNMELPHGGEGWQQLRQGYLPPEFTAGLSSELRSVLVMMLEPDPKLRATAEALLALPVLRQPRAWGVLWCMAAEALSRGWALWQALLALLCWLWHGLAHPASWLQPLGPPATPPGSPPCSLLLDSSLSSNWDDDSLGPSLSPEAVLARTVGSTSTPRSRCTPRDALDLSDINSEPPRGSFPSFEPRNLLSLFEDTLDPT

various kinases [20] = biological target: various kinases (Homo sapiens, UniProt Q9BYT3); settings: kinase STK33; LanthaScreen Binding
Chain of various kinases (Homo sapiens, UniProt Q9BYT3) (Q9BYT3 whole entry): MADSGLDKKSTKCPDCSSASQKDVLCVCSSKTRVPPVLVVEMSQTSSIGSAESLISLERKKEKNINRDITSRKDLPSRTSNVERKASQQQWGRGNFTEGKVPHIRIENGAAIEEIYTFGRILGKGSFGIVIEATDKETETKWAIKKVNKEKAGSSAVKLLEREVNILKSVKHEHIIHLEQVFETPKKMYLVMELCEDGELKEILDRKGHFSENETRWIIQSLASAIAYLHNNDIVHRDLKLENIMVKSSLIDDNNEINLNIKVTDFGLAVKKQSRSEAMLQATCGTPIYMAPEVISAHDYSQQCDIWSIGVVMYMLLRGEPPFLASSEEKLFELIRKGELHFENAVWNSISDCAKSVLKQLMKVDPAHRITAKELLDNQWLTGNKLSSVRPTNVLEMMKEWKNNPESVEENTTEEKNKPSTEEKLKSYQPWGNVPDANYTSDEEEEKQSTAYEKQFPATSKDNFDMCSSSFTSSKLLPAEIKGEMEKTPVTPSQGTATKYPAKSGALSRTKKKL

various kinases [21] = biological target: various kinases (Homo sapiens, UniProt Q9HBH9); settings: MKNK2 (MNK2)
various kinases [22] = biological target: various kinases (Homo sapiens, UniProt Q9NYL2); settings: kinase ZAK; LanthaScreen Binding
Chain of various kinases (Homo sapiens, UniProt Q9NYL2) (Q9NYL2 whole entry): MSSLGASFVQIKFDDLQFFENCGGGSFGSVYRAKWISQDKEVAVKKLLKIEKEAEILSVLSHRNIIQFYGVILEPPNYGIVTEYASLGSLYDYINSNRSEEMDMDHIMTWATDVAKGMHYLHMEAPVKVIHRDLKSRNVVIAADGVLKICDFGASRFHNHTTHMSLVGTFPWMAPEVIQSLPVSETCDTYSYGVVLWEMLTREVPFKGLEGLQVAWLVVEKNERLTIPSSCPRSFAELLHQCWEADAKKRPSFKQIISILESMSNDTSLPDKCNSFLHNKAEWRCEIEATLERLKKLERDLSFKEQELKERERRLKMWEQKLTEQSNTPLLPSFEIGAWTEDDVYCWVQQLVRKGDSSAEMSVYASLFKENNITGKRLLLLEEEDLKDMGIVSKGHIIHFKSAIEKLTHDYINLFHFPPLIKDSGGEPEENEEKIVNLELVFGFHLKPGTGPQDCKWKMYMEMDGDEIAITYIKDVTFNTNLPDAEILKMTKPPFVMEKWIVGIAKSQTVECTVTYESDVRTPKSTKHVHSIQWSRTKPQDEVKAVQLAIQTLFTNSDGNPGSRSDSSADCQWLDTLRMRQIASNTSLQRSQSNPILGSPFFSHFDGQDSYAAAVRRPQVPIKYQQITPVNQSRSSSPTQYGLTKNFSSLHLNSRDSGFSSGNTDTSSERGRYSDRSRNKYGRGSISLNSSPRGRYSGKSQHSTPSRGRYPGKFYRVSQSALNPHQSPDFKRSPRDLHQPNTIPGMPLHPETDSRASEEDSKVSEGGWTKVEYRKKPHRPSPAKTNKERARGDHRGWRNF

various kinases [23] = biological target: various kinases (Homo sapiens, UniProt Q9UKE5); settings: kinase TNIK; LanthaScreen Binding
Chain of various kinases (Homo sapiens, UniProt Q9UKE5) (Q9UKE5 whole entry): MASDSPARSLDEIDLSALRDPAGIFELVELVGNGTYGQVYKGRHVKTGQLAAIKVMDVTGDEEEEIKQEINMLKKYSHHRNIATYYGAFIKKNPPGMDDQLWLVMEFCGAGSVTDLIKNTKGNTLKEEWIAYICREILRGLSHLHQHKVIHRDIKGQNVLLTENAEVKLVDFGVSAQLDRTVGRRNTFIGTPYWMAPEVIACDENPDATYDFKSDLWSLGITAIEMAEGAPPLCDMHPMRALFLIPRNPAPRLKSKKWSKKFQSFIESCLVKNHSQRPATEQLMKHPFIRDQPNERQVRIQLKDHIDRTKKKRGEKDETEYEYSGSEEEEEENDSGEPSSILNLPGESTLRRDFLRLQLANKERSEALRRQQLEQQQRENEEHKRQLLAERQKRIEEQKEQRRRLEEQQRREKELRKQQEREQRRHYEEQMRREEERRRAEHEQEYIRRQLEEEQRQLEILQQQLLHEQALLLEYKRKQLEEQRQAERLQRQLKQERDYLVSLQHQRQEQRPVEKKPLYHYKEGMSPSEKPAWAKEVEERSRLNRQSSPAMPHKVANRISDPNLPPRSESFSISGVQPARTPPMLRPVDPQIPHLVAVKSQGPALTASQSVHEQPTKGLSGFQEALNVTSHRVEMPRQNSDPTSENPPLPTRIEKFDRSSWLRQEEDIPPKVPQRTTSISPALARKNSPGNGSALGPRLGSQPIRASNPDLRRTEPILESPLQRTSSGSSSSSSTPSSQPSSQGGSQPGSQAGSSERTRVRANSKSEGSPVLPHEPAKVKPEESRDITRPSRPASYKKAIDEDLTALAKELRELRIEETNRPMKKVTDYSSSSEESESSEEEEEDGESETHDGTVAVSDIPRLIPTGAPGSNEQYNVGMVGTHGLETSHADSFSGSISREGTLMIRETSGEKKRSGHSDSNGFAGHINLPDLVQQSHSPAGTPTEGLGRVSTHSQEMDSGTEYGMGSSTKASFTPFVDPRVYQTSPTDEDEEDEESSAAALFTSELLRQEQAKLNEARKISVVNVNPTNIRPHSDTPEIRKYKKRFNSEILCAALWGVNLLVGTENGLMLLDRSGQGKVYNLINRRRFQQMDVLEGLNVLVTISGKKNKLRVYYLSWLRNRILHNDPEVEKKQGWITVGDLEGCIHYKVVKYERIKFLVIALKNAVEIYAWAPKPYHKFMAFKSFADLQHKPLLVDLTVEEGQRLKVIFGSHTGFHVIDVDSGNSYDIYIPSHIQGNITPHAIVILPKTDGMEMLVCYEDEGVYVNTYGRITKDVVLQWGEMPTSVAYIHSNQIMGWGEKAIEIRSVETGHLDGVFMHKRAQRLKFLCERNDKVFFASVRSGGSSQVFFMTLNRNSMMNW

various kinases [24] = biological target: various kinases (Homo sapiens, UniProt Q9UM73, L1196M); settings: ALK L1196M
various kinases [25] = biological target: various kinases (Homo sapiens, UniProt Q9Y2U5); settings: MAP3K2 (MEKK2)

COc1ccc2c(c1)[C@]1(C[C@H]1c1ccc3c(/C=C/c4ccc(CN5C[C@@H](C)O[C@@H](C)C5)cc4)n[nH]c3c1)C(=O)N2 [CFI-400945]
% Inhibition (various kinases [1]): 57% and 65%
% Inhibition Average (various kinases [2]): 1%
% Inhibition Duplicate #1 (various kinases [2]): -1%
% Inhibition Duplicate #2 (various kinases [2]): 4%
% Inhibition Average (various kinases [3]): 18%
% Inhibition Duplicate #1 (various kinases [3]): 21%
% Inhibition Duplicate #2 (various kinases [3]): 16%
% Inhibition (various kinases [4]): 72% and 73%
% Inhibition (various kinases [5]): 78% and 79%
% Inhibition Average (various kinases [6]): -3%
% Inhibition Duplicate #1 (various kinases [6]): -6%
% Inhibition Duplicate #2 (various kinases [6]): -1%
% Inhibition (various kinases [7]): -1% and 0%
% Inhibition Average (various kinases [8]): 18%
% Inhibition Duplicate #1 (various kinases [8]): 25%
% Inhibition Duplicate #2 (various kinases [8]): 11%
% Inhibition (various kinases [9]): 1% and 2%
% Inhibition (various kinases [10]; CDK9 (Inactive)): 13% and 12%
% Inhibition (various kinases [10]; CDK9/cyclin K): -3% and -6%
% Inhibition (various kinases [11]): 14%
% Inhibition (various kinases [12]): 11% and 15%
% Inhibition (various kinases [13]): 6%
% Inhibition (various kinases [14]): 4% and 0%
% Inhibition (various kinases [15]): -4% and 5%
% Inhibition Average (various kinases [16]): 9%
% Inhibition Duplicate #1 (various kinases [16]): 14%
% Inhibition Duplicate #2 (various kinases [16]): 5%
% Inhibition Average (various kinases [17]): 13%
% Inhibition Duplicate #1 (various kinases [17]): 17%
% Inhibition Duplicate #2 (various kinases [17]): 8%
% Inhibition (various kinases [18]): 7% and 6%
% Inhibition Average (various kinases [19]): 31%
% Inhibition Duplicate #1 (various kinases [19]): 31%
% Inhibition Duplicate #2 (various kinases [19]): 30%
% Inhibition Average (various kinases [20]): -2%
% Inhibition Duplicate #1 (various kinases [20]): -2%
% Inhibition Duplicate #2 (various kinases [20]): -2%
% Inhibition (various kinases [21]): 26% and 29%
% Inhibition Average (various kinases [22]): -1%
% Inhibition Duplicate #1 (various kinases [22]): -1%
% Inhibition Duplicate #2 (various kinases [22]): -1%
% Inhibition Average (various kinases [23]): 26%
% Inhibition Duplicate #1 (various kinases [23]): 33%
% Inhibition Duplicate #2 (various kinases [23]): 18%
% Inhibition (various kinases [24]): 14% and 25%
% Inhibition (various kinases [25]): -1% and 4%
